Read-outs that look alike come from different tables or passages of the source. Starred links: 1 amine or outer side, 2 acyl side, 3 side chain; linkers in the order of their positions; H or OH if unused. Non-standard residues stand in square brackets, D forms with d. Groups on a side chain read outwards from the residue. *: point of attachment. C20 diacid = O=C(O)CCCCCCCCCCCCCCCCCCC(=O)*; C18 diacid = O=C(O)CCCCCCCCCCCCCCCCC(=O)*; γGlu = O=C(O)[C@H](CCC(=O)[*:2])N[*:1]; εLys = N[C@@H](CCCCN[*:1])C(=O)[*:2]; AEEA = NCCOCCOCC(=O)O; Aib = CC(C)(N)C(=O)O
Assays:
Type in all cases: cell-based
Settings in all cases: CreLuc reporter gene assay
[1] = target: T1, hNPY2R (Homo sapiens, UniProt P49146); experiment: hNPY2R CreLuc reporter gene assay in 0.5% and 100% plasma
T1 construct: expressed in transfected cells; host or cells: HEK-293 cells carrying a CRE-luciferase reporter gene
T1 sequence (P49146 1-381): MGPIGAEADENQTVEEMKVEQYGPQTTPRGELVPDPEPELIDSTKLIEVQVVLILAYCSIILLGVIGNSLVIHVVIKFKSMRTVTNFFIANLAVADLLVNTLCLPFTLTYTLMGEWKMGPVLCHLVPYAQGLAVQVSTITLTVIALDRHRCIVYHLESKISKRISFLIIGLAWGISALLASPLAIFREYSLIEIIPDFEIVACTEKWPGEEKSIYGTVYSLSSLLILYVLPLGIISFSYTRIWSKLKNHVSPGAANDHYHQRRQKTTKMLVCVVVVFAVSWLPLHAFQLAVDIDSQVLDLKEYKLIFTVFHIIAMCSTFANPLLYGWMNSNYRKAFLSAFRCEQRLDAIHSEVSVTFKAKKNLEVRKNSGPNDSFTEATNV
Summary of the method: (§1)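 Agonist EC50s came from 8-concentration curves over four decades, fitted by non-linear variable-slope regression of CRE-driven luciferase luminescence. Cells were exposed 4 h at 37 °C, in buffer with 0.5% human plasma or in 100% plasma; GIPR was expressed in CHO cells, GLP-1R and NPY2R in HEK cells.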

[2] = target: T2, hGLP1R (Homo sapiens, UniProt P43220); experiment: hGLP1R CreLuc reporter gene assay in 0.5% and 100% plasma
T2 construct: expressed in transfected cells; host or cells: HEK-293 cells carrying a CRE-luciferase reporter gene
T2 sequence (P43220 24-463): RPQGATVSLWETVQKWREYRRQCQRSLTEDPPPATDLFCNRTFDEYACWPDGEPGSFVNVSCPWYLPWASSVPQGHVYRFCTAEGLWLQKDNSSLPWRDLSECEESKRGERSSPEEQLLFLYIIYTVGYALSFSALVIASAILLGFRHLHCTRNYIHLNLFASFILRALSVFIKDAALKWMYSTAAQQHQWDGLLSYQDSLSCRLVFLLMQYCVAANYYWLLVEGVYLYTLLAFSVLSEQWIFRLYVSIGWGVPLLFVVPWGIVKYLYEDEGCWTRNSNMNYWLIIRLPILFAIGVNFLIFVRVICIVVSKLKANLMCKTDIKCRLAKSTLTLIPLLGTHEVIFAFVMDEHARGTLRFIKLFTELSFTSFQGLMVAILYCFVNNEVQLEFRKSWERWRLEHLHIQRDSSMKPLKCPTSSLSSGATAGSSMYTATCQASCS
Summary of the method: as §1

[3] = target: T3, hGIPR (Homo sapiens, UniProt P48546); experiment: hGIPR CreLuc reporter gene assay in 0.5% and 100% plasma
T3 construct: expressed in transfected cells; host or cells: CHO cells carrying a CRE-luciferase reporter gene
T3 sequence (P48546 22-466): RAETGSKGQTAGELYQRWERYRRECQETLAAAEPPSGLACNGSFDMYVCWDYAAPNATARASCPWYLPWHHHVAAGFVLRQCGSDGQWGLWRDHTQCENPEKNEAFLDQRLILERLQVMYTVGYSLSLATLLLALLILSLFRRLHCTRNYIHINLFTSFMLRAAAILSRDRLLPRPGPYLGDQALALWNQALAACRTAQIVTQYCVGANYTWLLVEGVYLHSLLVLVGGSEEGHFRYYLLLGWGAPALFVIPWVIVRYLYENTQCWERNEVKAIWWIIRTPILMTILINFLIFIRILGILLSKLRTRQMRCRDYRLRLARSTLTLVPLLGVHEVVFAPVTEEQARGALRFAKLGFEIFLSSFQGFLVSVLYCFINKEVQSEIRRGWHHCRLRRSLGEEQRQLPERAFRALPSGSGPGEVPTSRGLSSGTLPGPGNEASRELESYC
Summary of the method: as §1

[4] = 0.5% human plasma, read-out: hNPY2R 0.5% hP
[5] = 0.5% human plasma, read-out: hGLP1R 0.5% hP
[6] = 0.5% human plasma, read-out: hGIPR 0.5% hP
[7] = 100% human plasma, read-out: hNPY2R 100% hP
[8] = 100% human plasma, read-out: hGIPR 100% hP
[9] = 100% human plasma, read-out: hGLP1R 100% hP

| Substance | EC50 [1, 4] [nM] | EC50 [2, 5] [nM] | EC50 [3, 6] [nM] | EC50 [1, 7] [nM] | EC50 [3, 8] [nM] | EC50 [2, 9] [nM] |
| --- | --- | --- | --- | --- | --- | --- |
| H-Y[Aib]EGTFTSDYSI[Aib]LEKQAE[Aib]AFVQWLIK([εLys-γGlu-γGlu-γGlu-γGlu-γGlu-γGlu-C18 diacid])GGPSSGASLRHYYNWLTRQRY-NH2 [Compound 51, Y-Aib-E-G-T-F-T-S-D-Y-S-I-Aib-L-E-K-Q-A-E-Aib-A-F-V-Q-W-L-I-K(1,3)-GGPSSGASLRHYYNWLTRQRY-NH2.C18DA-gGlu-gGlu-gGlu-gGlu-gGlu-gGlu-eLys(1,2)] | 13.7 | 0.15 | 0.23 | 42.2 | 1.37 |  |
| H-Y[Aib]EGTFTSDYSI[Aib]LEKQAQ[Aib]AFIEWLIK([AEEA-AEEA-γGlu-γGlu-γGlu-γGlu-C20 diacid])GGPSEGASLRHYYNWLTRQRY-NH2 [Compound 231, Y-Aib-E-G-T-F-T-S-D-Y-S-I-Aib-L-E-K-Q-A-Q-Aib-A-F-I-E-W-L-I-K(1,3)-GGPSEGASLRHYYNWLTRQRY-NH2.C20DA-gGlu-gGlu-gGlu-gGlu-OEG-OEG(1,2)] | 19.2 | 0.14 | 0.33 |  | 1.43 |  |
| H-Y[Aib]EGTFTSDYSI[Aib]LEKQAQ[Aib]AFIEWLIK([γGlu-γGlu-γGlu-γGlu-C20 diacid])GGPSEGASLRHYYNWLTRQRY-NH2 [Compound 283, Y-Aib-E-G-T-F-T-S-D-Y-S-I-Aib-L-E-K-Q-A-Q-Aib-A-F-I-E-W-L-I-K(1,3)-GGPSEGASLRHYYNWLTRQRY-NH2.C20DA-gGlu-gGlu-gGlu-gGlu(1,2)] | 14.7 | 0.13 | 0.23 |  | 1.86 | 3.86 |
| H-Y[Aib]EGTFTSDYSI[Aib]LEKQAQ[Aib]AFVEWLIK([AEEA-AEEA-γGlu-γGlu-γGlu-C18 diacid])GGPEEGASLRHYYNWLTRQRY-NH2 [Compound 248, Y-Aib-E-G-T-F-T-S-D-Y-S-I-Aib-L-E-K-Q-A-Q-Aib-A-F-V-E-W-L-I-K(1,3)-GGPEEGASLRHYYNWLTRQRY-NH2.C18DA-gGlu-gGlu-gGlu-OEG-OEG(1,2)] | 18.7 | 0.25 | 0.12 |  | 0.79 |  |
| H-Y[Aib]EGTFTSDYSI[Aib]LEKQAQ[Aib]AFVEWLIK([AEEA-AEEA-γGlu-γGlu-γGlu-γGlu-C18 diacid])GGPESGASLRHYYNWLTRQRY-NH2 [Compound 163, Y-Aib-E-G-T-F-T-S-D-Y-S-I-Aib-L-E-K-Q-A-Q-Aib-A-F-V-E-W-L-I-K(1,3)-GGPESGASLRHYYNWLTRQRY-NH2.C18DA-gGlu-gGlu-gGlu-gGlu-OEG-OEG(1,2)] | 21.3 | 0.1 | 0.26 | 55.2 | 0.87 |  |
| H-Y[Aib]EGTFTSDYSI[Aib]LEKQAQ[Aib]AFVEWLIK([AEEA-AEEA-γGlu-γGlu-γGlu-γGlu-C18 diacid])GGPSSGASLRHYYNWLTRQRY-NH2 [Compound 254, Y-Aib-E-G-T-F-T-S-D-Y-S-I-Aib-L-E-K-Q-A-Q-Aib-A-F-V-E-W-L-I-K(1,3)-GGPSSGASLRHYYNWLTRQRY-NH2.C18DA-gGlu-gGlu-gGlu-gGlu-OEG-OEG(1,2)] | 17.8 | 0.07 | 0.22 | 30.9 | 0.63 | 1.69 |
| H-Y[Aib]EGTFTSDYSI[Aib]LEKQAQ[Aib]AFVEWLIK([AEEA-AEEA-γGlu-γGlu-γGlu-γGlu-C18 diacid])GGPSSPASLRHYYNWLTRQRY-NH2 [Compound 158, Y-Aib-E-G-T-F-T-S-D-Y-S-I-Aib-L-E-K-Q-A-Q-Aib-A-F-V-E-W-L-I-K(1,3)-GGPSSPASLRHYYNWLTRQRY-NH2.C18DA-gGlu-gGlu-gGlu-gGlu-OEG-OEG(1,2)] | 15.8 | 0.09 | 0.11 | 39.9 | 0.84 |  |

The remaining lines, values ahead:

| EC50 [1, 4] [nM] | EC50 [2, 5] [nM] | EC50 [3, 6] [nM] | EC50 [1, 7] [nM] | EC50 [3, 8] [nM] | EC50 [2, 9] [nM] | Substance |
| --- | --- | --- | --- | --- | --- | --- |
| 12.1 | 0.48 | 0.37 |  |  |  | H-Y[Aib]EGTFTSDYSI[Aib]LEKQAE[Aib]AFVQWLIK([εLys-γGlu-γGlu-γGlu-γGlu-γGlu-C20 diacid])GGPSEGASLRHYYNWLTRQRY-NH2 [Compound 200, Y-Aib-E-G-T-F-T-S-D-Y-S-I-Aib-L-E-K-Q-A-E-Aib-A-F-V-Q-W-L-I-K(1,3)-GGPSEGASLRHYYNWLTRQRY-NH2.C20DA-gGlu-gGlu-gGlu-gGlu-gGlu-eLys(1,2)] |
| 11.9 | 0.11 | 0.26 | 64.7 | 1.57 |  | H-Y[Aib]EGTFTSDYSI[Aib]LEKQAQ[Aib]AFIEWLIK([γGlu-γGlu-γGlu-γGlu-C18 diacid])GGPSEGASLRHYYNWLTRQRY-NH2 [Compound 247, Y-Aib-E-G-T-F-T-S-D-Y-S-I-Aib-L-E-K-Q-A-Q-Aib-A-F-I-E-W-L-I-K(1,3)-GGPSEGASLRHYYNWLTRQRY-NH2.C18DA-gGlu-gGlu-gGlu-gGlu(1,2)] |
| 12.1 | 0.11 | 0.13 |  | 1.27 |  | H-Y[Aib]EGTFTSDYSI[Aib]LEKQAQ[Aib]AFVEWLIK([AEEA-AEEA-Glu-Glu-Glu-C18 diacid])GGPSEGASLRHYYNWLTRQRY-NH2 [Compound 298, Y-Aib-E-G-T-F-T-S-D-Y-S-I-Aib-L-E-K-Q-A-Q-Aib-A-F-V-E-W-L-I-K(1,3)-GGPSEGASLRHYYNWLTRQRY-NH2.C18DA-E-E-E-OEG-OEG(1,2)] |
| 12.5 | 0.07 | 0.08 |  | 0.64 | 4.24 | H-Y[Aib]EGTFTSDYSI[Aib]LEKQAQ[Aib]AFVEWLIK([AEEA-AEEA-γGlu-γGlu-γGlu-C18 diacid])GGPESGASLRHYYNWLTRQRY-NH2 [Compound 166, Y-Aib-E-G-T-F-T-S-D-Y-S-I-Aib-L-E-K-Q-A-Q-Aib-A-F-V-E-W-L-I-K(1,3)-GGPESGASLRHYYNWLTRQRY-NH2.C18DA-gGlu-gGlu-gGlu-OEG-OEG(1,2)] |
| 11.5 | 0.21 | 0.14 | 41.7 | 1.23 |  | H-Y[Aib]EGTFTSDYSI[Aib]LEKQAQ[Aib]AFVEWLIK([AEEA-AEEA-γGlu-γGlu-γGlu-γGlu-C18 diacid])GGPEEPASLRHYYNWLTRQRY-NH2 [Compound 161, Y-Aib-E-G-T-F-T-S-D-Y-S-I-Aib-L-E-K-Q-A-Q-Aib-A-F-V-E-W-L-I-K(1,3)-GGPEEPASLRHYYNWLTRQRY-NH2.C18DA-gGlu-gGlu-gGlu-gGlu-OEG-OEG(1,2)] |
| 10.9 | 0.18 | 0.23 |  | 1.56 |  | H-Y[Aib]EGTFTSDYSI[Aib]LEKQAQ[Aib]AFVEWLIK([AEEA-AEEA-γGlu-γGlu-γGlu-γGlu-C18 diacid])GGPSEPASLRHYYNWLTRQRY-NH2 [Compound 256, Y-Aib-E-G-T-F-T-S-D-Y-S-I-Aib-L-E-K-Q-A-Q-Aib-A-F-V-E-W-L-I-K(1,3)-GGPSEPASLRHYYNWLTRQRY-NH2.C18DA-gGlu-gGlu-gGlu-gGlu-OEG-OEG(1,2)] |
| 13.4 |  | 0.25 |  |  | 17.2 | H-Y[Aib]EGTFTSDYSI[Aib]LEKQAQ[Aib]AFVEWLIK([AEEA-AEEA-γGlu-γGlu-γGlu-γGlu-C20 diacid])GGPEEPASLRHYYNWLTRQRY-NH2 [Compound 206, Y-Aib-E-G-T-F-T-S-D-Y-S-I-Aib-L-E-K-Q-A-Q-Aib-A-F-V-E-W-L-I-K(1,3)-GGPEEPASLRHYYNWLTRQRY-NH2.C20DA-gGlu-gGlu-gGlu-gGlu-OEG-OEG(1,2)] |
| 13.3 | 0.27 | 0.34 | 45.9 |  |  | H-Y[Aib]EGTFTSDYSI[Aib]LEKQAQ[Aib]AFVEWLIK([AEEA-AEEA-γGlu-γGlu-γGlu-γGlu-C20 diacid])GGPSEGASLRHYYNWLTRQRY-NH2 [Compound 287, Y-Aib-E-G-T-F-T-S-D-Y-S-I-Aib-L-E-K-Q-A-Q-Aib-A-F-V-E-W-L-I-K(1,3)-GGPSEGASLRHYYNWLTRQRY-NH2.C20DA-gGlu-gGlu-gGlu-gGlu-OEG-OEG(1,2)] |

Reference: US20240247080A1, “GLP1/GIP/NPY2 RECEPTOR TRIPLE AGONISTS” (Boehringer Ingelheim International GmbH, priority 2022, published 2024)
